Assay results as given in the Deep4Chem optical property database.
Each block holds one molecule with its values, some of them ahead of it.

Experiment: solvent given as SMILES

SMILES: CCN(CC)c1ccc(/C=C/c2cc(/C=C/c3ccc(N(CC)CC)cc3)nc(N)n2)cc1
- absorption maximum (in Cc1ccccc1): 418 nm
- absorption maximum (in ClC(Cl)Cl): 433 nm

SMILES: Oc1ccccc1/N=C/c1ccccc1Oc1ccccc1
- absorption maximum (in C1CCCCC1): 353 nm
- absorption maximum (in C1CCOC1): 355 nm
- absorption maximum (in C1COCCO1): 367 nm
- absorption maximum (in CC#N): 349 nm
- absorption maximum (in CC(C)=O): 366 nm
- absorption maximum (in CC(C)CO): 352 nm
- absorption maximum (in CC(C)O): 352 nm
- absorption maximum (in CCCCC): 355 nm
- absorption maximum (in CCCCCC): 367 nm
- absorption maximum (in CCCCCCCCO): 355 nm
- absorption maximum (in CCCCCCCO): 354 nm
- absorption maximum (in CCCCCCO): 355 nm
- absorption maximum (in CCCCO): 353 nm
- absorption maximum (in CCCCOC(C)=O): 367 nm
- absorption maximum (in CCCO): 351 nm
- absorption maximum (in CCO): 350 nm
- absorption maximum (in CCOCC): 363 nm
- absorption maximum (in CN(C)C=O): 349 nm
- absorption maximum (in CO): 348 nm
- absorption maximum (in CS(C)=O): 373 nm
- absorption maximum (in Cc1ccccc1): 381 nm
- absorption maximum (in Cc1ccccc1C): 359 nm
- absorption maximum (in ClC(Cl)Cl): 356 nm
- absorption maximum (in ClCCl): 356 nm
- absorption maximum (in N#Cc1ccccc1): 357 nm
- absorption maximum (in OCCO): 349 nm
- absorption maximum (in c1ccccc1): 366 nm

SMILES: N#Cc1c(N2CCCC2)cc(-c2ccccc2)c2c1-c1cccc3cccc-2c13
- absorption maximum (in O): 428 nm

SMILES: Cc1cc(N(C)C)ccc1C1=C2C=CC(=[N+](C)C)C=C2[Si](C)(C)c2cc(N(C)C)ccc21
- absorption maximum (in O): 646 nm

SMILES: FC(F)(F)c1ccc(C#Cc2ncc(-c3ccccc3)o2)cc1
- absorption maximum (in ClCCl): 320 nm

SMILES: Cc1ccc(N(c2ccc(C)cc2)c2ccc(-c3ccc(-c4ccc(N(c5ccc(C)cc5)c5ccc(C)cc5)cc4)c4nsnc34)cc2)cc1
- absorption maximum (in Cc1ccccc1): 474 nm
- absorption maximum (in ClCCl): 485 nm

SMILES: CN(C)c1ccc(-c2cc(-c3cccs3)nc(-c3ccccc3)n2)cc1
- absorption maximum (in ClC(Cl)Cl): 371 nm

SMILES: Cc1ccc2c(c1)C1(c3ccccc3-c3ccccc31)c1cc(C)ccc1N2c1ccc2c(c1)Oc1ccccc1P2(=S)c1ccccc1 (stereo not given)
- absorption maximum (in Cc1ccccc1): 311.25 nm

SMILES: N#Cc1cc2ccc(O)cc2oc1=O
- absorption maximum (in C1CCCCC1): 361 nm
- absorption maximum (in C1CCOC1): 355 nm
- absorption maximum (in CC#N): 352 nm
- absorption maximum (in CCOC(C)=O): 356 nm
- absorption maximum (in CS(C)=O): 351 nm
- absorption maximum (in ClC(Cl)Cl): 359 nm
- absorption maximum (in O): 355 nm

SMILES: C(=N\c1ccc(-c2cn3nc(-c4cccs4)sc3n2)cc1)/c1ccc(N(c2ccccc2)c2ccccc2)cc1
- absorption maximum (in ClC(Cl)Cl): 390 nm

SMILES: CCOC(=O)C1=C(C(=O)OC)N2CCc3cc(OC)c(OC)cc3C2=C[C@H](c2ccc(Cl)cc2)C12c1ccccc1-c1ccccc12
- absorption maximum (in ClCCl): 310 nm

SMILES: CCC1=C(C)C2=C(c3cc(C(=O)Cl)cc(C4=C5C(C)=C(CC)C(C)=[N+]5[B-](F)(F)n5c(C)c(CC)c(C)c54)c3)c3c(C)c(CC)c(C)n3[B-](F)(F)[N+]2=C1C
- absorption maximum (in C1CCOC1): 530 nm
- absorption maximum (in CC#N): 527 nm
- absorption maximum (in CN(C)C=O): 535 nm
- absorption maximum (in Cc1ccccc1): 534 nm
- absorption maximum (in ClC(Cl)Cl): 534 nm

SMILES: O=c1c2ccccc2n(-c2ccc(-c3ccc(-n4c5ccccc5c5ccccc54)cc3)cc2)c2ccccc12
- absorption maximum (in ClCCl): 394 nm

SMILES: Fc1c(F)c(F)c([B-]2(c3c(F)c(F)c(F)c(F)c3F)Oc3c(ccc4c5c(ccc34)C=[N+](c3ccccc3)[B-](c3c(F)c(F)c(F)c(F)c3F)(c3c(F)c(F)c(F)c(F)c3F)O5)C=[N+]2c2ccccc2)c(F)c1F
- absorption maximum (in C1CCOC1): 522 nm
- absorption maximum (in CC#N): 515 nm
- absorption maximum (in CC(C)=O): 515 nm
- absorption maximum (in Cc1ccccc1): 531 nm
- absorption maximum (in ClCCl): 533 nm

SMILES: Cc1ccc(N(c2cc(C(C)(C)C)ccc2C)c2ccc3ccc4c(N(c5ccc(C)cc5C)c5cc(C(C)(C)C)ccc5C)ccc5ccc2c3c54)c(C)c1
- absorption maximum (in Cc1ccccc1): 431 nm

SMILES: CC(C)(C)c1ccc2c(c1)c1cc(C(C)(C)C)cc3c1n2-c1cc(-c2ccccc2F)cc2c1B3c1cc(C(C)(C)C)cc3c4cc(C(C)(C)C)ccc4n-2c13
- absorption maximum (in Cc1ccccc1): 471.56 nm

SMILES: COc1ccc(-c2ccc(-c3ccc(F)cc3)cc2)cc1
- absorption maximum (in C1COCCO1): 291 nm

SMILES: COc1cc(C(=O)c2c(C)c3ccc4cccc5c6cccc7ccc2c(c76)c3c45)cc(OC)c1OC
- absorption maximum (in ClCCl): 391 nm

SMILES: C(#Cc1ccccc1)c1ccccc1
- absorption maximum (in CO): 298 nm
- absorption maximum (in ClC(Cl)Cl): 299 nm
- absorption maximum (in ClCCl): 299 nm

SMILES: CCc1nc2c(nc1CC)C(c1ccccc1)=[N+]1C2=Nc2c3nc(CC)c(CC)nc3c(-c3ccccc3)n2[B-]1(F)F
- absorption maximum (in C1CCOC1): 685 nm

SMILES: CC1(C)c2ccccc2-c2cc3c4ccccc4n(-c4ccc(-c5nc(-c6ccccc6)nc(-c6ccccc6)n5)cc4)c3cc21
- absorption maximum (in Cc1ccccc1): 362 nm

SMILES: CCCCCCCCCCCCCCCCCCN1C(=O)c2ccc3c4ccc5c6c(ccc(c7ccc(c2c37)C1=O)c64)C(=O)NC5=O
- absorption maximum (in CN(C)C=O): 523 nm

SMILES: O=S(=O)(c1ccc(N(c2ccccc2)c2ccccc2)cc1)c1ccc(S(=O)(=O)c2ccc(N(c3ccccc3)c3ccccc3)cc2)cc1
- absorption maximum (in Cc1ccccc1): 354 nm

SMILES: CCOC(=O)/N=c1/oc2cc(N(CC)CC)ccc2cc1C#N
- absorption maximum (in ClCCl): 440 nm

SMILES: FC(F)(F)c1ccc(/C=C2\C=C(c3ccccc3)C=C2c2ccccc2)cc1
- absorption maximum (in C1CCOC1): 450 nm

SMILES: C[Si]1(C)c2ccccc2-c2ccccc21
- absorption maximum (in ClCCl): 336 nm

SMILES: COCCOCCOCCNc1cc2c3c(c(NCCOCCOCCOC)cc4c3c1C(=O)N(CCOCCOCCOC)C4=O)C(=O)N(CCOCCOCCOC)C2=O
- absorption maximum (in CO): 605 nm
- absorption maximum (in ClC(Cl)Cl): 610 nm
- absorption maximum (in O): 623 nm

SMILES: O=P1(c2ccccc2)C(c2ccccc2)=Cc2cc3ccccc3cc21 (stereo not given)
- absorption maximum (in ClCCl): 387 nm

SMILES: Cc1ccc(N(c2ccc(C)cc2)c2ccc(-c3ccc4c(c3)C(=O)c3ccccc3C4=O)cc2)cc1
- absorption maximum (in C1CCOC1): 463 nm
- absorption maximum (in CCCCCC): 457 nm
- absorption maximum (in CCOC(C)=O): 461 nm
- absorption maximum (in CCOCC): 459 nm
- absorption maximum (in Cc1ccccc1): 470 nm
- absorption maximum (in ClC(Cl)(Cl)Cl): 474 nm
- absorption maximum (in ClCCl): 476 nm

SMILES: N#CC(C#N)=Cc1ccc2nc(C#Cc3ccc(N(c4ccc(C#Cc5nc6ccc(C=C(C#N)C#N)cc6s5)cc4)c4ccc(C#Cc5nc6ccc(C=C(C#N)C#N)cc6s5)cc4)cc3)sc2c1
- absorption maximum (in Cc1ccccc1): 440 nm

SMILES: CC(=O)N(Cc1ccccn1)c1c2ccccc2c2c3c(cccc13)C(=O)N(Cc1ccccn1)C2=O
- absorption maximum (in C1CCOC1): 436 nm
- absorption maximum (in CCCCCC): 432 nm
- absorption maximum (in CCO): 437 nm
- absorption maximum (in Cc1ccccc1): 437 nm
- absorption maximum (in ClCCl): 439 nm

SMILES: Cc1ccc(C2=C3C=CC(Nc4ccccc4)=[N+]3[B-](F)(F)n3c(Nc4ccccc4)ccc32)cc1
- absorption maximum (in CO): 588 nm

SMILES: CC(=O)c1c(N[C@@H](Cc2ccccc2)C(=O)O)c2ccc(N(C)C)cc2oc1=O
- absorption maximum (in ClCCl): 374 nm

The remaining lines, values ahead:

- absorption maximum (in CC1CCCCC1): 336 nm
- absorption maximum (in CC#N): 320 nm
- absorption maximum (in CO): 321 nm
SMILES: COC(=O)C(NC(=O)OC(C)(C)C)c1ccc2oc(-c3ccc(O)cc3O)nc2c1 (stereo not given)

- absorption maximum (in O): 350 nm
SMILES: COc1cc2cc(-c3ccc(C(=O)OCOC(C)=O)cc3C(=O)OCOC(C)=O)oc2cc1N1CCOCCOCCN(c2cc3oc(-c4ccc(C(=O)OCOC(C)=O)cc4C(=O)OCOC(C)=O)cc3cc2OC)CCOCCOCC1

- absorption maximum (in CCO): 590 nm
- absorption maximum (in O): 590 nm
SMILES: CC/[NH+]=c1\cc2oc3cc(NCCN)c4ccccc4c3nc-2cc1C

- absorption maximum (in ClCCl): 322 nm
SMILES: COC(=O)c1c(-c2cc3ccccc3oc2=O)nn(-c2ccccc2)c1C(=O)OC

- absorption maximum (in CO): 490 nm
SMILES: CCN(CC)c1ccc(C=Cc2nc3nc4ccccc4nc3s2)cc1

- absorption maximum (in ClCCl): 337 nm
SMILES: CC(C)(C)c1cc(-c2cc3c(cc(-c4cc(C(C)(C)C)cc(C(C)(C)C)c4)n3-c3ccc(C(=C(c4ccccc4)c4ccccc4)c4ccccc4)cc3)n2-c2ccc(C(=C(c3ccccc3)c3ccccc3)c3ccccc3)cc2)cc(C(C)(C)C)c1

- absorption maximum (in ClCCl): 304 nm
SMILES: Cc1cc2ccccc2c2c1c1ccccc1n2-c1ccc(N(c2ccccc2)c2ccccc2)cc1

- absorption maximum (in ClCCl): 461 nm
SMILES: COCCOCCOCCOCC(COCCOCCOCCOC)Oc1cc(/C=C/c2ccc(/C=C(\C#N)C(=O)c3ccccc3)cc2)c(OC(COCCOCCOCCOC)COCCOCCOCCOC)cc1/C=C/c1ccc(/C=C(\C#N)C(=O)c2ccccc2)cc1

- absorption maximum (in CCO): 492 nm
SMILES: CN1C(=CC2=C(O)C(=O)C2=C2C(=O)c3ccccc3C2=O)C(C)(C)c2ccccc21

- absorption maximum (in C1COCCO1): 363 nm
SMILES: O=C1OC(c2ccccc2)=N/C1=C\c1ccccc1

- absorption maximum (in CCCCCC): 693 nm
- absorption maximum (in ClCCl): 697 nm
SMILES: CC(C)[Si](C#Cc1c2cc3ccccc3cc2c(C#C[Si](C(C)C)(C(C)C)C(C)C)c2nc3ccccc3nc12)(C(C)C)C(C)C

- absorption maximum (in CC#N): 328 nm
- absorption maximum (in CCOC(C)=O): 328 nm
- absorption maximum (in CN(C)C=O): 332 nm
- absorption maximum (in CS(C)=O): 336 nm
- absorption maximum (in c1ccccc1): 328 nm
SMILES: CCOC(=O)CN(CC(=O)OCC)c1ccc(-c2cc(-c3ccccn3)nc(-c3ccccn3)c2)cc1

- absorption maximum (in CCO): 381 nm
SMILES: COc1cc2c(cc1F)c(=O)c1cc(F)c(OC)cc1n2Cc1ccccc1

- absorption maximum (in ClC(Cl)Cl): 432 nm
SMILES: CCCN1c2ccccc2Sc2cc(/C=C\c3cc(=O)oc4cc(C)c(Cl)cc34)ccc21

- absorption maximum (in c1ccccc1): 420 nm
SMILES: CCOC(=O)c1sc2nc3c(c(C#N)c2c1N)CCCC3

- absorption maximum (in ClCCl): 414 nm
SMILES: CC(C)(C)c1cc2ccc3c(N(c4ccccc4)c4ccccc4)cc(N(c4ccccc4)c4ccccc4)c4ccc(c1)c2c34

- absorption maximum (in CCO): 381 nm
SMILES: Cc1c(COC(=O)c2ccccc2Cl)n2c(OCC(=O)c3ccccc3Cl)c(C)c(=O)n2c1=O

- absorption maximum (in ClCCl): 479 nm
SMILES: Cc1cc(C)c(C2=C3C=C(/C=C/C(=O)OC(C)(C)C)C=[N+]3[B-](F)(F)n3c2ccc3N2CCCC2)c(C)c1

- absorption maximum (in ClC(Cl)Cl): 470 nm
SMILES: CCn1c2ccccc2oc2c(C#N)c3oc4ccccc4oc3c(C#N)c21

- absorption maximum (in CC#N): 347 nm
- absorption maximum (in CCO): 350 nm
SMILES: Cc1cc(=O)oc2ccc3ccc(O)cc3c12

- absorption maximum (in ClCCl): 738 nm
SMILES: CCN(CC)c1ccc2c(-c3ccccc3C(=O)O)c3c([o+]c2c1)/C(=C/c1ccc(N2CCCC2)s1)CCC3

- absorption maximum (in ClCCl): 650 nm
SMILES: F[B-]1(F)n2c(c(-c3ccccc3)c(-c3cccs3)c2-c2ccccc2)N=C2C(c3ccccc3)=C(c3cccs3)C(c3ccccc3)=[N+]21
